For orientation: GI50 means the concentration that inhibits growth by half.

Some test systems named below: SK-MEL-28; CCRF-CEM; MOLT-4; DU-145; SW-620; SN12C; LOX IMVI; 786-0; SR; SK-OV-3; A549; NCI/ADR-RES; EKVX; MCF7; SF-295; TK-10; SF-268; MDA-N; HOP-62.
Assay in all cases: DTP human tumour cell line panel, 48 h

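Method: 48-hour compound exposure of cells in 96-well plates, five concentrations, linear interpolation of endpoints. The concentration for 50% growth inhibition is given as GI50.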 Calls of active or inactive are those of the source. Cut-off read from the data, not from the text of the source: active = GI50 up to about 1.1 µM and inactive = higher.

In the case of `C=C1C(=O)O[C@H]2C1C[C@@H](O)[C@@]1(C)OC1CC[C@@]1(C)O[C@H]21` (some centres not stated), the GI50 was 21.1 µM (inactive) in the test on SK-MEL-28; 5.15 µM (inactive) in the test with CCRF-CEM; 5.94 µM (inactive) with MOLT-4; 36.6 µM (inactive) with DU-145; 13.3 µM (inactive) with SW-620; 20.1 µM (inactive) in the test on SN12C. Besides, the GI50 in the test on LOX IMVI is 13.2 µM (inactive); in the test with 786-0 it was 22.1 µM (inactive); with SR, 14.1 µM (inactive); in the test on SK-OV-3, > 100 µM (inactive); in the test with A549, > 100 µM (inactive); with NCI/ADR-RES it was 20.7 µM (inactive). Moreover, the GI50 was 15.8 µM (inactive) in the test on EKVX; 14.8 µM (inactive) in the test with MCF7; 99.1 µM (inactive) in the test on SF-295; 17.8 µM (inactive) in the test with TK-10; 48.1 µM (inactive) with SF-268.

Turning to `C[C@]1(O)O[C@@H]2OCC[C@@H]2C2=C1C(=O)c1ccccc1C2=O`, the GI50 in the test on SK-MEL-28 is 29.4 µM (inactive); in the test on CCRF-CEM it was 15.4 µM (inactive); with MOLT-4, 5.04 µM (inactive); with DU-145 it was 16.7 µM (inactive); with SW-620, 18.4 µM (inactive); in the test on SN12C it was 23 µM (inactive). The GI50 was 11.4 µM (inactive) in the test with LOX IMVI; 14.4 µM (inactive) in the test on 786-0; 10.7 µM (inactive) in the test on SR; 6.15 µM (inactive) in the test on MDA-N; 21.9 µM (inactive) in the test on SK-OV-3; 17.9 µM (inactive) in the test on A549. The GI50 with NCI/ADR-RES was 19.7 µM (inactive); with HOP-62, 12.7 µM (inactive); in the test on EKVX, 20 µM (inactive); with MCF7, 6.46 µM (inactive); in the test on SF-295 it was 18.7 µM (inactive); in the test on TK-10, 20.4 µM (inactive). Besides, the GI50 with SF-268 is 12.8 µM (inactive).

In the case of `O=C(CCc1ccc(O)cc1)c1c(O)cc(O)cc1OC1OC(CO)C(O)C(O)C1O` (configuration not stated), the GI50 in the test on SK-MEL-28, with DU-145, in the test with SW-620, in the test on LOX IMVI, in the test with 786-0 and in the test on MDA-N was > 100 µM (inactive) throughout. Further, the GI50 in the test on SK-OV-3, with A549, in the test with NCI/ADR-RES, in the test with HOP-62, in the test on EKVX and in the test with SF-295 was > 100 µM (inactive) throughout. In addition, the GI50 in the test with TK-10 and in the test with SF-268 was > 100 µM (inactive) each time.

Turning to `CCN(CCCl)c1ccc(NC(=O)c2cc(C(=O)NCCN(C)C)cc(C(=O)Nc3ccc(N(CC)CCCl)cc3)c2)cc1`, the GI50 in the test with SK-MEL-28 was 16.6 µM (inactive); in the test with CCRF-CEM, 0.0687 µM (active); in the test with MOLT-4 it was 0.151 µM (active); with DU-145, 8.41 µM (inactive); in the test with SW-620 it was 1.76 µM (inactive); with SN12C it was 2.08 µM (inactive). In addition, the GI50 is 1.36 µM (inactive) with LOX IMVI; 0.942 µM (active) in the test on 786-0; 0.659 µM (active) in the test on SR; 11.1 µM (inactive) with MDA-N; 4.26 µM (inactive) in the test on SK-OV-3; 6.24 µM (inactive) in the test on A549. In addition, the GI50 in the test with NCI/ADR-RES was > 100 µM (inactive); with HOP-62, 1.82 µM (inactive); in the test on MCF7, 0.746 µM (active); in the test with SF-295, 9.46 µM (inactive); in the test on TK-10, 16.7 µM (inactive); with SF-268, 0.891 µM (active).

As to `CCCCCCCCCCCCCCCC(=O)NC1CCc2cc(O)c(O)c(O)c2-c2ccc(SC)c(=O)cc21` (configuration not stated), the GI50 in the test on SK-MEL-28 is 6.67 µM (inactive); in the test on CCRF-CEM, 3.93 µM (inactive); in the test on MOLT-4, 9.44 µM (inactive); in the test with SW-620, 4.84 µM (inactive); in the test with SN12C, 12.9 µM (inactive); in the test on LOX IMVI, 12 µM (inactive). For the same molecule, the GI50 with 786-0 is 16.6 µM (inactive); in the test on SR it was 2.79 µM (inactive); in the test on SK-OV-3, 14.4 µM (inactive); with A549, 1.49 µM (inactive); in the test with HOP-62 it was 9.59 µM (inactive); with EKVX, 19 µM (inactive). In addition, the GI50 in the test with SF-295 was 3.7 µM (inactive); with TK-10 it was 15.8 µM (inactive); in the test with SF-268 it was 5.28 µM (inactive).

In the case of `COC(=O)C1(C(=O)OC)Cc2ccc(C)cc2C2=C1C(=O)c1ccccc1C2=O`, the GI50 was 16.6 µM (inactive) in the test on SK-MEL-28; 15.2 µM (inactive) in the test with CCRF-CEM; 8.51 µM (inactive) with MOLT-4; 20.2 µM (inactive) in the test with DU-145; 19.8 µM (inactive) in the test on SW-620; 19.8 µM (inactive) in the test with SN12C. Moreover, the GI50 in the test on LOX IMVI is 14.9 µM (inactive); with 786-0, 26.4 µM (inactive); with SR it was 24.2 µM (inactive); with MDA-N, 16.5 µM (inactive); in the test with A549, 29.9 µM (inactive); in the test with NCI/ADR-RES, 12.6 µM (inactive). Further, the GI50 with HOP-62 is 14.4 µM (inactive); in the test on EKVX, 14.6 µM (inactive); with MCF7, 15 µM (inactive); in the test on SF-295 it was 21.2 µM (inactive); in the test with TK-10 it was 57 µM (inactive); in the test on SF-268, 16 µM (inactive).

With `CCOC(=O)c1s/c(=N\Nc2nc3ccccc3cc2C2OCCO2)n(Cc2ccccc2)c1C`, the GI50 was > 100 µM (inactive) in the test on SK-MEL-28; > 100 µM (inactive) with CCRF-CEM; 40.2 µM (inactive) in the test with MOLT-4; > 100 µM (inactive) in the test with SW-620; > 100 µM (inactive) in the test with SN12C; > 100 µM (inactive) with LOX IMVI. The GI50 is > 100 µM (inactive) in the test on 786-0; 4.65 µM (inactive) in the test with SR; > 100 µM (inactive) in the test on SK-OV-3; > 100 µM (inactive) in the test with A549; > 100 µM (inactive) in the test on HOP-62; > 100 µM (inactive) in the test on EKVX. The GI50 in the test with SF-295, in the test on TK-10 and in the test on SF-268 was > 100 µM (inactive) in each case.

For the molecule `Cc1c2ccnc(C(N)=O)c2c(C)c2c1[nH]c1ccccc12`, the GI50 was 7.78 µM (inactive) in the test with SK-MEL-28; 4.73 µM (inactive) with CCRF-CEM; 2.72 µM (inactive) in the test on MOLT-4; 3.19 µM (inactive) with SW-620; 4.13 µM (inactive) in the test with SN12C; 4.65 µM (inactive) in the test on LOX IMVI. The GI50 in the test with 786-0 is 5.08 µM (inactive); in the test with SK-OV-3, 7.66 µM (inactive); with A549 it was 5.47 µM (inactive); in the test on NCI/ADR-RES, 5.65 µM (inactive); in the test with HOP-62, 5.97 µM (inactive); in the test with EKVX, 10.6 µM (inactive). The GI50 in the test with MCF7 is 2.39 µM (inactive); in the test on SF-295 it was 1.53 µM (inactive); in the test on TK-10, 5.55 µM (inactive); in the test on SF-268, 5.46 µM (inactive).

Consider `N#CCC(=O)N/N=C(/C(=O)Nc1ccccc1)C1C(=O)N(c2ccccc2)N=C1N` (configuration not stated), for which the GI50 with SK-MEL-28, with CCRF-CEM, in the test with MOLT-4, with SW-620, with SN12C and in the test with LOX IMVI was > 100 µM (inactive) in each case. The GI50 in the test on 786-0, in the test with SR, in the test on SK-OV-3, in the test with A549, in the test on HOP-62 and with EKVX was > 100 µM (inactive) throughout. Moreover, the GI50 in the test with SF-295, in the test with TK-10 and in the test on SF-268 was > 100 µM (inactive) each time.

Source of the values: ChEMBL document CHEMBL1201862, “PubChem BioAssay data set” (2004).
